The source of these data is patent US20190365673A1, “Immunomodulatory Compounds” (Lankenau Institute for Medical Research, priority 2016, published 2019).

Data set [1] has as its system WM3451 melanoma cells. Briefly: Cell viability assay (EZQuant), WM3451. The format is cell-based. The note with it: Homo sapiens; AP alone, 72 h, WM3451, BRAF WT.
Procedure: (§2) Cell proliferation assays were conducted in 96-well plates at 25-30% starting confluence to determine the effect of exposure to increasing concentrations of PLX4720 or AP with or without 1 mM DFMO for 72 hours. Cell viability was assessed using the EZQuant™ Cell Quantifying Kit (Alstem) in which WST-8 is reduced by the metabolic activity of live cells to formazan dye. […] The 72 hour IC50 values for AP were calculated using non-linear regression (sigmoidal dose response) of the plot of percentage inhibition versus the log of inhibitor concentration in GraphPad Prism (v5; GraphPad Software, Inc., La Jolla, Calif.).
Data set [2] relates to WM983B melanoma cells. Briefly: Cell viability assay (EZQuant), WM983B. The data set is classed as cell-based. The note with it: Homo sapiens, AP alone, 72 h.
Procedure: as §2
Data set [3] concerns WM3743 melanoma cells. Briefly: Cell viability assay (EZQuant), WM3743. The data set is classed as cell-based. The note with it: Homo sapiens; AP alone, 72 h, WM3743, BRAF WT.
Procedure: as §2
In data set [4] the test system is B16F10 melanoma tumors. The experiment in a line: B16F10 melanoma tumor model (Example 3). The data set is classed as in vivo, C57Bl/6 mice. As for the experimental part: C57Bl/6 mice were injected s.c. with 1.5×10^5 B16F10 melanoma cells. B16F10 melanoma cells are a poorly immunogenic, highly metastatic, and highly aggressive cancer cell line. When tumors were 40-80 mm^3 in size, AP (Formula (II)) treatment (i.p., 2 mg/kg every other day) was initiated. Some mice were also administered 0.25% DFMO (w/v) in the drinking water. Tumors were measured with calipers to determine tumor volume over 14 days of treatment (FIG. 12A). Splenocytes from mice treated with vehicle, DFMO, AP, or AP+DFMO were analyzed by flow cytometry for F4/80+CD206^+ M2 macrophages (FIG. 12B). Splenocytes were treated for 4 hours at 37° C. with ionomycin (500 ng/ml) and PMA (50 ng/ml) to stimulate T cells to produce IFNγ in the presence of Brefeldin A to block cytokine secretion. Cells were stained with anti-CD4 antibody in the presence of Brefeldin A, fixed, permeabilized and intracellularly stained with an anti-IFNγ antibody and analyzed by flow cytometry (FIG. 12C).

Data set [5] concerns 1205Lu melanoma spheroids. The experiment in a line: 3D spheroid culture viability (CellTiter-Glo). The data set is classed as cell-based, human. The conditions noted are these: FIG. 10, 25 μM each drug, 48 h, 3D spheroids on NCPs. As for the experimental part:
(§1) BRAF^V600E mutant 1205Lu melanoma cells were seeded at 1×10^4 cells in each well of the […] NCPs. When spheroids were formed on day 3, the 3D cultures of spheroids were treated with PLX4720 (25 μM) and/or AP (25 μM). 2D monolayer cultures of 1205Lu melanoma cells were also treated with PLX4720 (25 μM) and/or AP (25 μM). After drug treatment for 48 hours, the viability of spheroids and monolayer cultures was assayed using the CellTiter-Glo Luminescent Cell Viability Assay. The percent cell survival in each treatment group was calculated relative to cells treated with medium only under the same conditions. As controls, the growth of cells without drug treatment under each condition was normalized as 100% separately. The means are presented±SD.
The inorganic nanoscale scaffolding NanoCulture plates (NCP) were purchased from SCIVAX. The base of each NCP is constructed with a transparent cyclo-olefin resinous sheet with a nanoscale indented pattern. To form spheroids, 1205Lu human melanoma cells were seeded in 96-well NCPs at 1×10^4 cells/well in MCDB153 (Sigma)/Leibovitz's L-15 (Cellgro) medium (4:1 ratio) supplemented with 2% heat-inactivated fetal calf serum and 2 mM CaCl2 and incubated in a conventional cell incubator at 37° C. in an atmosphere of 5% CO2 and normal O2 levels. […]

In data set [6] the test system is CXCR4^+ RAW247.6 macrophage cells. The experiment in a line: In vitro chemotaxis assay, SDF-1 stimulated migration. The format is cell-based. As for the experimental part: The ability to inhibit stromal cell-derived factor 1 (SDF-1) stimulated migration of macrophage was also tested in an in vitro chemotaxis assay. Specifically, CXCR4^+ RAW247.6 macrophage cells were treated with SDF-1α alone or with AMD3100, a specific CXCR4 antagonist which inhibits cell migration and phosphorylation of ERK1/2 by SDF-1, or AP (Formula (II)).

Data set [7] concerns BRAF^V600E melanoma cells. Briefly: Cell viability, panel of BRAF V600E human melanoma cell lines. The data set is classed as cell-based. The conditions noted are these: summary of Table 1, BRAF V600E lines, read-out: IC50 (sensitivity to AP). The source says:
A panel of human melanoma cell lines with different BRAF mutational status were screened for their sensitivity to the BRAF inhibitor PLX4720. […] The IC50 value is defined as the concentration of the compound (PLX4720) required to inhibit 50% cell viability compared to an untreated control. This approach allowed for the ranking of the relative sensitivity of each cell line to the PLX4720 BRAF inhibitor. Thus, the sensitivity of these BRAF^V600E melanoma cells to BRAF inhibition with PLX4720 reflected their functional dependence on mutant BRAF signaling to sustain their proliferation and viability. Likewise, it was tested whether BRAF^V600E cells were more sensitive compared to BRAF^WT melanoma cells to increasing concentrations of the cytotoxic polyamine transport ligand, AP.

Data set [8] has as its system WM88 melanoma cells. The experiment in a line: Cell viability assay (EZQuant), WM88. The format is cell-based. The conditions noted are these: Homo sapiens; AP alone, 72 h, WM88, BRAF V600E.
Procedure: as §2
For data set [9], the system named is B16F10-pBABE cells. Briefly: Cell viability assay, B16F10-pBABE. The note with it: Mus musculus, read-out: IC50 (cytotoxicity). As for the experimental part: Cell proliferation assays were conducted in 96-well plates at 25-30% starting confluence to determine the effect of exposure to increasing concentrations of PLX4720 or AP with or without 1 mM DFMO for 72 hours. Cell viability was assessed using the EZQuant™ Cell Quantifying Kit (Alstem) in which WST-8 is reduced by the metabolic activity of live cells to formazan dye. For spheroids treated with PLX4720 and/or AP, viability of the spheroid cells was estimated by quantification of the ATP present using a CellTiter-Glo Luminescent Cell Viability Assay (Promega Co., Madison, Wis.). The 72 hour IC50 values for AP were calculated using non-linear regression (sigmoidal dose response) of the plot of percentage inhibition versus the log of inhibitor concentration in GraphPad Prism (v5; GraphPad Software, Inc., La Jolla, Calif.).

In data set [10] the test system is WM3734 melanoma cells. The experiment in a line: Cell viability assay (EZQuant), WM3734. The data set is classed as cell-based. The note with it: Homo sapiens; AP alone, 72 h, WM3734, BRAF V600E.
Procedure: as §2
The test system of data set [11] is 1205Lu melanoma monolayer cultures. Briefly: 2D monolayer culture viability (CellTiter-Glo). The data set is classed as cell-based, human. The note with it: FIG. 10, 25 μM each drug, 48 h. As for the experimental part:
as §1

Read-outs that look alike come from different tables or passages of the source. A value given as a limit tells only on which side of the number the result lay.

For `CNCNCNCc1ccc(CNCNCNC)c2ccccc12` [AP], the IC50 (commonly the concentration that inhibits the measured activity by half) in [1] was 9 µM; in data set [2] (BRAF V600E, read-out: IC50 (μM AP)) it was 2.6 µM; in [2] (FIG. 8C, read-out: IC50) it was 2.3 µM; in [3], 8.9 µM; in [7], under 2500 nM; in data set [8], 0.8 µM. Also, the IC50 in [9] stood at 36400 nM; in data set [10], 2.2 µM. In [4] (FIG. 12A, AP alone, i.p. 2 mg/kg every other day, 14 days), the tumor growth result is reported as “inhibits tumor growth”. Further, the “CD206+ F4/80+ macrophages (splenocytes)” value in data set [4] (FIG. 12B, AP alone) is given as “dramatically decreases”. In addition, the “IFN-gamma-secreting T cells” value in data set [4] (FIG. 12C, splenocytes stimulated with ionomycin and PMA) is on record as “increasing”. Besides, the “cell viability of spheroid cultures” value in [5] is “similarly sensitive”. Further, the “SDF-1-stimulated migration of CXCR4+ macrophages” value in [6] (FIG. 13) was “inhibits”. The “viability of the macrophages” value in data set [6] (in the chemotaxis assay) is listed as “without affecting the viability”. Further, the “cell viability of monolayer cultures” value in data set [11] is recorded as “similarly sensitive”.
